# From patent publication US20250115926A1, “DEREGULATED DHS AND TYRA ENZYMES OF GRASSES ENABLE EFFICIENT PRODUCTION OF BOTH TYROSINE AND PHENYLALANINE” (Wisconsin Alumni Research Foundation, priority 2023, published 2025)
# Legend:
# [1] = test system: recombinant Sorghum DHS enzymes; experiment: DHS activity: effector inhibition; type: biochemical, Sorghum bicolor; details: 0.5 mM (FIG. 17)
# Description: In contrast, BdDHS1b was not inhibited by arogenate even up to 2.5 mM. In fact, DHS1b activity increased in the presence of high concentrations of arogenate (FIG. 4F), likely due to high concentrations of contaminant NaCl present in the arogenate preparation (FIG. 16). Under acidic conditions, arogenate is known to undergo a spontaneous dehydration and decarboxylation into […]. […] Like in Brachypodium DHS enzymes, 0.5 mM arogenate inhibited SbDHS1a and SbDHS2 at ˜50% and ˜40%, respectively, but had no effect on SbDHS1b.
# [2] = target: Brachypodium distachyon BdDHS1b, SEQ ID NO: 3, recombinant (Brachypodium distachyon, UniProt I1H4W3); experiment: DHS activity: kinetics and effector inhibition; type: biochemical; details: read-out: inhibition at 0.5 mM
# Brachypodium distachyon BdDHS1b, SEQ ID NO: 3, recombinant, sequence (I1H4W3 37-542): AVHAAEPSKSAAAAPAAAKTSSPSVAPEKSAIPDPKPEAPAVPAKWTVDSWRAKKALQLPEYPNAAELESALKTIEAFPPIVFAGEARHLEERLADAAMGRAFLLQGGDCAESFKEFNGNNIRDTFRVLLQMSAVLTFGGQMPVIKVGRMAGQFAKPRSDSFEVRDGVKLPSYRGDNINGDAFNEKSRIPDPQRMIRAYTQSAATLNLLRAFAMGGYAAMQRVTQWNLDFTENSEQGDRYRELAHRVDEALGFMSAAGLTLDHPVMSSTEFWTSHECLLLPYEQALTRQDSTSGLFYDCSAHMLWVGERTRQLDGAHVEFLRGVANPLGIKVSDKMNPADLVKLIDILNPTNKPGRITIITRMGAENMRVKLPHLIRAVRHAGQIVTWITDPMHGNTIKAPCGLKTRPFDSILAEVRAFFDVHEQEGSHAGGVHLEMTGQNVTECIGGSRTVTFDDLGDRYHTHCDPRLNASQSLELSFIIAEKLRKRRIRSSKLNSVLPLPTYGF
# Text: (§1) To examine their functional properties, the recombinant DHS enzymes of Brachypodium were produced and characterized in vitro.
# (§2) As recent studies have shown that plant DHS enzymes are feedback-inhibited by multiple effector molecules^15, 16, we tested the effect of AAAs and another 14 related metabolites, including various intermediates of the shikimate pathway and the pathways downstream of AAAs, on Brachypodium DHS enzymes.
# (§3) The DHS assay for UHPLC-MS quantification was set up using the same settings as described in the previous paragraph for the UV-based DHS assay, which guaranteed at least 10 minutes of reaction linearity. After a 10-minute incubation, 20 μL of the reactions (out of a total volume of 50 μL) were mixed into 80 μL of methanol, vortexed and transferred to vials for injection. Analysis of DAHP by UHPLC-MS was conducted using the same chromatographic settings as described for the UHPLC-MS analysis of soluble metabolites and compared with an authentic DAHP standard (Sta. Cruz biotechnology, cat. no. sc-216432).
# [3] = target: Brachypodium distachyon BdDHS2, SEQ ID NO: 5, recombinant (Brachypodium distachyon, UniProt I1I809); experiment: DHS activity: kinetics and effector inhibition; type: biochemical; details: read-out: inhibition at 0.5 mM
# Brachypodium distachyon BdDHS2, SEQ ID NO: 5, recombinant, sequence (I1I809 31-503): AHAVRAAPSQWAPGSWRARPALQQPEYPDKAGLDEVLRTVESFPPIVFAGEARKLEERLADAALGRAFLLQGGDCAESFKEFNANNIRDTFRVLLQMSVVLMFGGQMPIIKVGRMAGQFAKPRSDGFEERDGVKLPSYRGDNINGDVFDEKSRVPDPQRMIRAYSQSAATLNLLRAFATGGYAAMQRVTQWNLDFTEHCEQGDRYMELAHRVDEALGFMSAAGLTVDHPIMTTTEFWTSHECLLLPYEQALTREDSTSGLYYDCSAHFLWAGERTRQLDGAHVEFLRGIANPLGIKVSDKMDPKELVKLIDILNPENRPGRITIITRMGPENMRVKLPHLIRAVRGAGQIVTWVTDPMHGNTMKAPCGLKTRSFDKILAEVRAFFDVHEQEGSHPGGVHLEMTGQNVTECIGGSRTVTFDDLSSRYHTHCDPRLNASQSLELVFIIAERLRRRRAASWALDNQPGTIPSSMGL
# Text: as §1, §2, §3
# [4] = target: T1, Brachypodium distachyon BdTyrAnc (non-canonical TyrA), SEQ ID NO: 37, recombinant (Brachypodium distachyon, UniProt I1GYB3); experiment: TyrA arogenate dehydrogenase kinetics and tyrosine inhibition (340 nm); type: biochemical
# T1 construct: from cDNA
# T1 sequence (I1GYB3 58-361): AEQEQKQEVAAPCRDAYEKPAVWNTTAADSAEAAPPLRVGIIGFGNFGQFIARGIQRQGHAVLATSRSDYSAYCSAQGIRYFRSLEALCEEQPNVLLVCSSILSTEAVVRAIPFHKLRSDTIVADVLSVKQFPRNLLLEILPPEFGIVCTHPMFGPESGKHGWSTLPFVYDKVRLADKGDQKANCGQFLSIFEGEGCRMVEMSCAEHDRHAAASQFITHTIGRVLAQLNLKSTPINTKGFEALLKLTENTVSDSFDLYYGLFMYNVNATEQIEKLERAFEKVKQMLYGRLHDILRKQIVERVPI
# Text: Next, to study the biochemical properties of grass TyrA enzymes, we generated and characterized recombinant purified TyrA proteins from Brachypodium (BdTyrA) and Sorghum (SbTyrA), two distantly related grass species^43, 44. Whereas TyrA enzymes from dicot plants are generally NADP^+-dependent arogenate dehydrogenases^20, 39, 45, except for NADP^+-prephenate dehydrogenases in the legume family^40, 46, previous reports on the substrate preference of grass TyrA enzymes are inconclusive^17, 19. […] NAD^+-prephenate dehydrogenase activity was absent in all cases, ruling out a significant contamination of the enzyme preparations with the TyrA enzyme from E. coli^47.48.
compound,measurement,setting,value
N[C@@H](Cc1ccc(O)cc1)C(=O)O [tyrosine],inhibition at 0.5 mM,[1],no strong inhibition
same,inhibition at 500 µM,[2],~10%
same,inhibition at 500 µM,[3],~10%
same,IC50,"[4]; IC50 (tyrosine), 0.5 mM arogenate, 1 mM NADP^+",242 ± 45 µM
same,Ki,"[4]; calculated from Km and IC50, competitive inhibition model",64 ± 25 µM
same,activity at 200 µM,[4]; read-out: activity retained at 200 μM of tyrosine,> 50%
same,mode of inhibition by tyrosine,[4]; with respect to arogenate,competitive with arogenate
